The Ki is a measure of affinity in units of concentration, obtained from inhibition or displacement.

Chain of truncated PI3Kα (p110α/iSH2 p85α), PI3KA_Act (P42336 whole entry, the tested form may be a part): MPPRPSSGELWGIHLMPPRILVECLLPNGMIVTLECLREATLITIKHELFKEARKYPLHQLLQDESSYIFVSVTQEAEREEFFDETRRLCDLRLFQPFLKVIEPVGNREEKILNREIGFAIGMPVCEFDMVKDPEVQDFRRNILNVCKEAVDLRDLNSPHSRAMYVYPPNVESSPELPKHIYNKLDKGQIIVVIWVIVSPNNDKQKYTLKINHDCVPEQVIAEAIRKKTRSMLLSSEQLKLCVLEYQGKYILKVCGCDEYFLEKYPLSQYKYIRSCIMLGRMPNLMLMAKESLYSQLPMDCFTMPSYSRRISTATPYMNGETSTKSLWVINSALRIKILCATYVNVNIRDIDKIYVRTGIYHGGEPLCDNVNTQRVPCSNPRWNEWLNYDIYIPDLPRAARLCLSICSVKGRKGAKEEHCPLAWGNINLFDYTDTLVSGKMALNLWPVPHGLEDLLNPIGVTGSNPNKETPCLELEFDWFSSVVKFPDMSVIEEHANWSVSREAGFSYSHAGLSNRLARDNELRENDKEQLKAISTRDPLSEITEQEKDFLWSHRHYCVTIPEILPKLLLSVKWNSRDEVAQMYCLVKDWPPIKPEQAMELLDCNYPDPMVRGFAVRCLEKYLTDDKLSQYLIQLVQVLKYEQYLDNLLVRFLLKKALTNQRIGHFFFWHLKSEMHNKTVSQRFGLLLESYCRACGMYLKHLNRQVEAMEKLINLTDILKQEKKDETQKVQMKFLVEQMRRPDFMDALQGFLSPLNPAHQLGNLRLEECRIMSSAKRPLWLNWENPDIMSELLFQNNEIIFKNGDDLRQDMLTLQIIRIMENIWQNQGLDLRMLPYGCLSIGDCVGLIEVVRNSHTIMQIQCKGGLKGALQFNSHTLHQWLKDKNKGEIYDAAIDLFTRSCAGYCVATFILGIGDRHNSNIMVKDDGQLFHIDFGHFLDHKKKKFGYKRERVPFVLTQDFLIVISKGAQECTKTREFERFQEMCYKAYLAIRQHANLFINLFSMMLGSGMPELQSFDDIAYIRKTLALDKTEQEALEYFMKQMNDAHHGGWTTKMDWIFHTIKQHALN

The first experiment addresses truncated PI3Kα (p110α/iSH2 p85α), PI3KA_Act (Homo sapiens (Human), UniProt P42336). As to the kind of experiment: PI3Kα biochemical kinase assay, fluorescence polarization format (PI3KA_Act). Particulars: 0.5 nM p110α/iSH2 p85, 1 mM ATP, 30 μM PIP2, 15-min preincubation; Morrison equation fit; read-out: PI3KA_Act Ki. Here is the method:
Enzyme Production for Biochemical Assay: p110α-iSH2 p85α Complex (Full Length p110α and p85α iSH2)(“PI3KA Act”)
Gene encoding p110α subunit was subcloned into polyhedrine promoter while gene encoding p85α niSH2 domains was subcloned into p10 promoter. […] Recombinant baculovirus was generated using Bac-to-Bac protocol (Life Technologies, Carlsbad, Calif.). Large scale expression was conducted in Sf21 (Life Technologies, Carlsbad, Calif.) cells at a multiplicity of infection (“MOI”)=1 for 48 hours. Cells were lyzed in 50 mM Tris pH 8.0, 250 mM NaCl, 5% glycerol, 0.25 mM TCEP, and 20 mM imidazole. The p110α-niSH2 p85α complex was purified from clarified supernatant using Immobilized Metalo Affinity Chromatography (“IMAC”). The protein was eluted from the column using 50 mM Tris pH 8.0, 200 mM NaCl, 0.25 mM TCEP, and 200 mM imidazole. Following elution p110α-niSH2 p85α complex was dialyzed against 4 liters of 50 mM Tris pH 8.0, 200 mM NaCl, 0.25 mM TCEP, and 40 mM imidazole in the presence of PreScission Protease (1:70 molar ratio of Protease to Protein) and TEV protease (1:40 molar ratio protease to protein) for 16 hours at 4° C. The protein was further purified using reverse IMAC to remove cleaved histidine tag and contaminants captured during initial IMAC purification. The mixture of p110α-iSH2 p85α complex and cleaved nSH2 was recovered in reverse IMAC 40 mM imidazole flow through and 60 mM imidazole wash fractions. Those fractions were pulled together and loaded on Superdex 200 26/60 SEC column equilibrated in 25 mM Tris, pH 8.0, 100 mM NaCl, 2% glycerol, and 2 mM TCEP.
The enzymatic reactions were conducted in 50 μL volumes in 96-well plates. […] The reactions were incubated for 30 min at room temperature, stopped with EDTA pH 8 (10 mM final concentration). […] The plate was shaken for 30 minutes and fluorescence polarization values were measured on an LJL Analyst HT plate reader (Molecular Devices, Sunnyvale, Calif.).
Regarding `CC(C)(C)OC(=O)N1CCC(CO)(Oc2cc(-c3cnc(N)nc3)nc(N3CCOCC3)n2)C1` (single isomer, unassigned) [Example 8, tert-butyl 3-{[2′-amino-2-(morpholin-4-yl)-4,5′-bipyrimidin-6-yl]oxy}-3-(hydroxymethyl)pyrrolidine-1-carboxylate], the inhibition constant Ki is under 0.018 nM.

`Nc1ncc(-c2nc(N3CCOCC3)nc(N[C@@]3(CO)CCCNC3)c2F)cn1` [Example 145, [(3S)-3-{[2′-amino-5-fluoro-2-(morpholin-4-yl)-4,5′-bipyrimidin-6-yl]amino}piperidin-3-yl]methanol]: the inhibitory constant (Ki) amounted to 2.53 nM.

In the case of `CCOC(=O)N1CC[C@](CO)(Nc2cc(-c3cnc(N)nc3)nc(N3CCOC[C@@H]3C)n2)C1` [Example 64, ethyl (3S)-3-({2′-amino-2-[(3S)-3-methylmorpholin-4-yl]-4,5′-bipyrimidin-6-yl}amino)-3-(hydroxymethyl)pyrrolidine-1-carboxylate], the inhibition constant Ki was under 0.018 nM.

As for `C[C@H]1COCCN1c1nc(N[C@@]2(CO)CCN(C(=O)OC(C)(C)C)C2)cc(-c2cnc(N)nc2)n1` [Example 36, tert-butyl (3S)-3-({2′-amino-2-[(3S)-3-methylmorpholin-4-yl]-4,5′-bipyrimidin-6-yl}amino)-3-(hydroxymethyl)pyrrolidine-1-carboxylate], the Ki was under 0.018 nM.

For `C[C@H]1COCCN1c1nc(N[C@@]2(CO)CCN(C(=O)OC(C)(C)C)C2)c(F)c(-c2cnc(N)nc2)n1` [Example 111, tert-butyl (3S)-3-({2′-amino-5-fluoro-2-[(3S)-3-methylmorpholin-4-yl]-4,5′-bipyrimidin-6-yl}amino)-3-(hydroxymethyl)pyrrolidine-1-carboxylate], the Ki is under 0.018 nM.

Consider `CN(c1cc(-c2cnc(N)nc2)nc(N2CCOCC2)n1)C1(CO)CCN(C(=O)OC(C)(C)C)C1` (stereo not shown) [Example 25, tert-butyl 3-{[2′-amino-2-(morpholin-4-yl)-4,5′-bipyrimidin-6-yl](methyl)amino}-3-(hydroxymethyl)pyrrolidine-1-carboxylate], for which the Ki amounted to 0.049 nM.

On to `C[C@H]1COCCN1c1nc(NC2(CO)CN(C(=O)OC(C)(C)C)C2)cc(-c2cnc(N)nc2)n1` [Example 49, tert-butyl 3-({2′-amino-2-[(3S)-3-methylmorpholin-4-yl]-4,5′-bipyrimidin-6-yl}amino)-3-(hydroxymethyl)azetidine-1-carboxylate], for which the Ki came out at 0.083 nM.

Consider `Nc1ncc(-c2nc(N3CCOCC3)nc(N[C@@]3(CO)CCCN(C(=O)C4(F)CC4)C3)c2F)cn1` [Example 159, [(3S)-3-{[2′-amino-5-fluoro-2-(morpholin-4-yl)-4,5′-bipyrimidin-6-yl]amino}-3-(hydroxymethyl)piperidin-1-yl](1-fluorocyclopropyl)methanone], for which the Ki was found to be 0.102 nM.

Regarding `C[C@H]1COCCN1c1nc(N[C@@]2(C)CCN(C(=O)OC(C)(C)C)C2)cc(-c2cnc(N)nc2)n1` [Example 19, tert-butyl (3S)-3-({2′-amino-2-[(3S)-3-methylmorpholin-4-yl]-4,5′-bipyrimidin-6-yl}amino)-3-methylpyrrolidine-1-carboxylate], the Ki was 0.158 nM.

On to `CC(=O)N1CC[C@](C)(Nc2nc(N3CCOCC3)nc(-c3cnc(N)nc3)c2F)C1` [Example 106, 1-[(3S)-3-{[2′-amino-5-fluoro-2-(morpholin-4-yl)-4,5′-bipyrimidin-6-yl]amino}-3-methylpyrrolidin-1-yl]ethanone], for which the Ki turned out to be 0.12 nM.

As for `Nc1ncc(-c2nc(N3CCOCC3)nc(N[C@]3(CO)CCCNC3)c2F)cn1` [Example 144, [(3R)-3-{[2′-amino-5-fluoro-2-(morpholin-4-yl)-4,5′-bipyrimidin-6-yl]amino}piperidin-3-yl]methanol], the inhibitory constant (Ki) worked out at 13.9 nM.

Consider `Cc1ncc(-c2cc(N[C@@]3(CO)CCN(C(=O)OC(C)(C)C)C3)nc(N3CCOCC3)n2)cc1F` [Example 127, tert-butyl (3S)-3-{[6-(5-fluoro-6-methylpyridin-3-yl)-2-(morpholin-4-yl)pyrimidin-4-yl]amino}-3-(hydroxymethyl)pyrrolidine-1-carboxylate], for which the Ki was found to be 19 nM.

As for `Nc1ncc(-c2cc(N[C@]3(CO)CCNC3)nc(N3CCOCC3)n2)cn1` [Example 30, [(3R)-3-{[2′-amino-2-(morpholin-4-yl)-4,5′-bipyrimidin-6-yl]amino}pyrrolidin-3-yl]methanol], the Ki was found to be 2.42 nM.

Take `COC(=O)N1CCC[C@](CO)(Nc2cc(-c3cnc(N)nc3)nc(N3CCOCC3)n2)C1` [Example 5, methyl (3S)-3-{[2′-amino-2-(morpholin-4-yl)-4,5′-bipyrimidin-6-yl]amino}-3-(hydroxymethyl)piperidine-1-carboxylate]: the inhibition constant Ki was under 0.018 nM.

As for `Cc1ncc(-c2cc(N[C@@]3(CO)CCN(C(=O)OC(C)(C)C)C3)nc(N3CCOCC3)n2)cc1C#N` [Example 125, tert-butyl (3S)-3-{[6-(5-cyano-6-methylpyridin-3-yl)-2-(morpholin-4-yl)pyrimidin-4-yl]amino}-3-(hydroxymethyl)pyrrolidine-1-carboxylate], the Ki worked out at 118 nM.

Consider `C[C@H]1COCCN1c1nc(NC2(CO)CNC2)cc(-c2cnc(N)nc2)n1` [Example 54, [3-({2′-amino-2-[(3S)-3-methylmorpholin-4-yl]-4,5′-bipyrimidin-6-yl}amino)azetidin-3-yl]methanol], for which the Ki was found to be 2.67 nM.

With `COC[C@]1(Nc2cc(-c3cnc(N)nc3)nc(N3CCOCC3)n2)CCNC1` [Example 122, N˜6˜-[(3S)-3-(methoxymethyl)pyrrolidin-3-yl]-2-(morpholin-4-yl)-4,5′-bipyrimidine-2′,6-diamine], the inhibitory constant (Ki) was found to be 21.5 nM.

As to `C[C@H]1COCCN1c1nc(N[C@@]2(CO)CCN(C(=O)C3CC3)C2)c(F)c(-c2cnc(N)nc2)n1` [Example 120, [(3S)-3-({2′-amino-5-fluoro-2-[(3S)-3-methylmorpholin-4-yl]-4,5′-bipyrimidin-6-yl}amino)-3-(hydroxymethyl)pyrrolidin-1-yl](cyclopropyl)methanone], the Ki was under 0.018 nM.

Regarding `CC(C)(C)OC(=O)N1CCC(CO)(Oc2cc(-c3cnc(N)nc3)nc(N3CCOCC3)n2)C1` (single isomer, unassigned) [Example 9, tert-butyl 3-{[2′-amino-2-(morpholin-4-yl)-4,5′-bipyrimidin-6-yl]oxy}-3-(hydroxymethyl)pyrrolidine-1-carboxylate], the Ki is 0.492 nM.

`Cn1cc(C(=O)N2CC[C@](CO)(Nc3cc(-c4cnc(N)nc4)nc(N4CCOCC4)n3)C2)cn1` [Example 81, [(3S)-3-{[2′-amino-2-(morpholin-4-yl)-4,5′-bipyrimidin-6-yl]amino}-3-(hydroxymethyl)pyrrolidin-1-yl](1-methyl-1H-pyrazol-4-yl)methanone]: the Ki amounted to 0.31 nM.

For `CC[C@@]1(Nc2cc(-c3cnc(N)nc3)nc(N3CCOCC3)n2)CCN(C(=O)C2(F)CC2)C1` [Example 94, [(3R)-3-{[2′-amino-2-(morpholin-4-yl)-4,5′-bipyrimidin-6-yl]amino}-3-ethylpyrrolidin-1-yl](1-fluorocyclopropyl)methanone], the inhibition constant (Ki) was determined as 0.631 nM.

With `Nc1ncc(-c2nc(N3CCOCC3)nc(N[C@@]3(CO)CCCN(C(=O)OCC(F)F)C3)c2F)cn1` [Example 149, 2,2-difluoroethyl (3S)-3-{[2′-amino-5-fluoro-2-(morpholin-4-yl)-4,5′-bipyrimidin-6-yl]amino}-3-(hydroxymethyl)piperidine-1-carboxylate], the inhibition constant (Ki) is under 0.018 nM.

For the compound `COC(=O)N1CC[C@](CO)(Nc2nc(-c3cnc(N)nc3)nc(N3CCOCC3)n2)C1` [Example 11, methyl (3S)-3-{[4-(2-aminopyrimidin-5-yl)-6-(morpholin-4-yl)-1,3,5-triazin-2-yl]amino}-3-(hydroxymethyl)pyrrolidine-1-carboxylate], the inhibition constant (Ki) worked out at 0.103 nM.

For `COC(=O)N1CC[C@](CO)(Nc2cc(-c3cnc(N)nc3)nc(N3CCOC[C@@H]3C)n2)C1` [Example 65, methyl (3S)-3-({2′-amino-2-[(3S)-3-methylmorpholin-4-yl]-4,5′-bipyrimidin-6-yl}amino)-3-(hydroxymethyl)pyrrolidine-1-carboxylate], the Ki was under 0.018 nM.

The same experiment, now with this note: PI3KA_Act Ki (nM), 0.5 nM p110α/iSH2 p85, 1 mM ATP, 30 μM PIP2, 15-min preincubation; Morrison equation fit.
For `C[C@H]1COCCN1c1nc(N[C@@]2(CO)CCN(C(=O)OCC(F)F)C2)c(F)c(-c2cnc(N)nc2)n1` [Example 119, 2,2-difluoroethyl (3S)-3-({2′-amino-5-fluoro-2-[(3S)-3-methylmorpholin-4-yl]-4,5′-bipyrimidin-6-yl}amino)-3-(hydroxymethyl)pyrrolidine-1-carboxylate], the Ki was under 0.018 nM.

The record behind these values is patent US9758538B2, “Pyrimidine derivatives” (PFIZER INC., priority 2015, dated 2017).
